{"source": "patent US20120251496A1", "about": "“EZATIOSTAT FOR TREATING MULTIPLE MYELOMA” (Telik, Inc., priority 2011, published 2012)", "key": {"[1]": {"tested_on": "ARH77", "assay": "multiple myeloma cell proliferation, ARH77", "format": "cell-based", "conditions": "ARH-77, ARH77, Human multiple myeloma", "description": "(§1) The effect that ezatiostat has on multiple myeloma proliferation is tabulated below (Table 1)."}, "[2]": {"tested_on": "RPMI-8226", "assay": "multiple myeloma cell proliferation, RPMI-8226", "format": "cell-based", "conditions": "RPMI-8226, Human multiple myeloma", "description": "as §1"}, "[3]": {"tested_on": "U266B1", "assay": "multiple myeloma cell proliferation, U266B1", "format": "cell-based", "conditions": "U266B1, Human multiple myeloma", "description": "as §1"}, "[4]": {"tested_on": "human RPMI8226 multiple myeloma cell", "assay": "combination with melphalan, inhibition of multiple myeloma cell proliferation", "format": "cell-based", "conditions": "added together with melphalan; RPMI8226 cells; FIG. 1"}, "[5]": {"tested_on": "relapsed/refractory myeloma patients", "conditions": "thalidomide alone; cited from earlier work"}}}
{"molecule": "CCOC(=O)[C@@H](N)CCC(=O)N[C@@H](CSCc1ccccc1)C(=O)N[C@@H](C(=O)OCC)c1ccccc1", "note": "[ezatiostat]", "values": [{"measurement": "IC50", "setting": "[1]", "result": 2230, "unit": "nM"}, {"measurement": "IC50", "setting": "[2]", "result": 33000, "unit": "nM"}, {"measurement": "IC50", "setting": "[3]", "result": 860, "unit": "nM"}, {"measurement": "synergy with melphalan in inhibiting cell proliferation", "setting": "[4]", "result": "demonstrated synergy with melphalan"}]}
{"molecule": "O=C1CCC(N2C(=O)c3ccccc3C2=O)C(=O)N1", "note": "(centres unmarked) [Thalidomide, thalidomide]", "values": [{"measurement": "partial response rates", "setting": "[5]", "result": "about 30 % of patients"}]}
